{"source": "PubChem BioAssay AID602167", "about": "(The Scripps Research Institute Molecular Screening Center, 2012)", "molecular_target": "transactivating tegument protein VP16 (Human herpesvirus 1), as a GAL4-VP16 activation-domain luciferase reporter", "test": "VP16 transactivation inhibitor potency, dose response, counter-screen for SRC3 inhibitor project, cell-based, luminescence, high throughput, SRC3 series (AID 602167)", "settings": "VP16 transactivation luciferase reporter cells", "note": "Calls of active or inactive are those of the source. How the calls were made is not given here."}
{"smiles": "O=c1[nH]c2ccccc2n1C1CCN(C(c2ccccc2)c2nnnn2Cc2ccccc2)CC1", "note": "(stereo not drawn)", "values": [{"measurement": "IC50", "result": "inactive"}]}
{"smiles": "COc1cc([C@@H]2c3cc4c(cc3[C@@H](O[C@@H]3O[C@@H]5CO[C@@H](C)O[C@H]5[C@H](O)[C@H]3O)[C@H]3COC(=O)[C@H]23)OCO4)cc(OC)c1O", "values": [{"measurement": "IC50", "result": "> 35.9 µM (inactive)"}]}
{"smiles": "CCCc1c(C)nc2ccccc2c1SCCC#N", "values": [{"measurement": "IC50", "result": "inactive"}]}
{"smiles": "CCc1ccc(/C=C2\\SC(=S)N(CCCC(=O)NCCCN3CCOCC3)C2=O)cc1", "values": [{"measurement": "IC50", "result": "inactive"}]}
{"smiles": "COc1ccc(-c2cn[nH]c2-c2ccc(OC)cc2O)cc1", "values": [{"measurement": "IC50", "result": 6.04, "unit": "µM"}]}
{"smiles": "Fc1ccccc1-c1csc(=Nc2cccnc2)n1CCCn1ccnc1", "values": [{"measurement": "IC50", "result": 7.45, "unit": "µM"}]}
{"smiles": "Cc1ccc(-n2c(Cl)c(Cl)nc(Cl)c2=O)cc1", "values": [{"measurement": "IC50", "result": 4.07, "unit": "µM"}]}
{"smiles": "COc1ccc(/C=C2\\CN(Cc3ccccc3)C/C(=C\\c3ccc(OC)c(O)c3)C2=O)cc1O", "values": [{"measurement": "IC50", "result": "inactive"}]}
{"smiles": "CO[C@@]12[C@@H]3N[C@@H]3CN1C1=C(C(=O)C(N)=C(C)C1=O)[C@@H]2COC(N)=O", "values": [{"measurement": "IC50", "result": "> 35.8 µM (inactive)"}]}
{"smiles": "NC(=O)c1sc2nc3c(c(-c4ccco4)c2c1N)CCC3", "values": [{"measurement": "IC50", "result": 3.1, "unit": "µM"}]}
{"smiles": "C=CCn1c(C)cc(C(=O)COc2ccc(C)nc2[N+](=O)[O-])c1C", "values": [{"measurement": "IC50", "result": "inactive"}]}
{"smiles": "Cc1ccc(C(=O)O/N=C(\\N)c2ccccn2)c(Cl)c1", "values": [{"measurement": "IC50", "result": "inactive"}]}
{"smiles": "CN1C(=O)C2(C(C#N)=C(N)N(c3cc(Cl)cc(Cl)c3)C3=C2C(=O)CCC3)c2ccccc21", "note": "(stereo not drawn)", "values": [{"measurement": "IC50", "result": "inactive"}]}
{"smiles": "c1ccc2c(c1)Nc1ccncc1S2", "values": [{"measurement": "IC50", "result": "inactive"}]}
{"smiles": "Clc1ccc(-c2csc3ncnc(NCCN4CCOCC4)c23)cc1", "values": [{"measurement": "IC50", "result": 8.01, "unit": "µM"}]}
{"smiles": "CCc1ccc(-c2nc(CSCC(=O)NCc3ccco3)c(C)o2)cc1", "values": [{"measurement": "IC50", "result": "inactive"}]}
{"smiles": "COc1cc(NS(C)(=O)=O)ccc1Nc1c2ccccc2nc2ccccc12", "values": [{"measurement": "IC50", "result": "> 35.9 µM (inactive)"}]}
{"smiles": "CCCNC(=O)c1nnsc1S(=O)(=O)c1ccc(Cl)cc1", "values": [{"measurement": "IC50", "result": "inactive"}]}
{"smiles": "CN1CCN(c2ccc(NC(=O)N3CCc4ccccc43)cc2)CC1", "values": [{"measurement": "IC50", "result": "inactive"}]}
{"smiles": "Brc1ccc2ncc3ccccc3c2c1", "values": [{"measurement": "IC50", "result": "inactive"}]}
{"smiles": "Cc1ccc2occ(/C=N/NC(=O)[C@@H](N)Cc3ccccc3)c(=O)c2c1", "values": [{"measurement": "IC50", "result": 9.66, "unit": "µM"}]}
{"smiles": "Nc1nc2c(nnn2C2CC(O)C(CO)O2)c(=O)[nH]1", "note": "(stereo not drawn)", "values": [{"measurement": "IC50", "result": "inactive"}]}
{"smiles": "Cc1ccc(/C=C2\\SC(=S)N(CCCC(=O)NC3CCCC3)C2=O)cc1", "values": [{"measurement": "IC50", "result": 4.58, "unit": "µM"}]}
{"smiles": "CCCCN1C=CC(=C2C(=O)c3ccccc3C2=O)C=C1", "values": [{"measurement": "IC50", "result": 5.59, "unit": "µM"}]}
{"smiles": "Cc1cc(/C=C2\\Cc3ccccc3C2=O)c(C)n1-c1ccccc1", "values": [{"measurement": "IC50", "result": "inactive"}]}
{"smiles": "O=c1[nH]c(O)c(N=Nc2ccc3c(c2)OCCO3)c(=O)[nH]1", "values": [{"measurement": "IC50", "result": "inactive"}]}
{"smiles": "O=c1[nH]cnc2c1nnn2C1OC(CO)C(O)C1O", "note": "(stereo not drawn)", "values": [{"measurement": "IC50", "result": "inactive"}]}
{"smiles": "CCOc1ccc(/C=C2\\SC(=S)N(CCCC(=O)NCCCN3CCOCC3)C2=O)cc1", "values": [{"measurement": "IC50", "result": "inactive"}]}
{"smiles": "CCOc1ccc(Nc2cc(C)nc(-n3nc(C)cc3C)n2)cc1", "values": [{"measurement": "IC50", "result": "inactive"}]}
{"smiles": "Nc1nc(CCl)nc(Nc2cccc3ccccc23)n1", "values": [{"measurement": "IC50", "result": "inactive"}]}
{"smiles": "CS(=O)(=O)c1ccc(Sc2nc3ccccc3s2)c([N+](=O)[O-])c1", "values": [{"measurement": "IC50", "result": "> 35.9 µM (inactive)"}]}
{"smiles": "O=S(=O)(/C(=C\\c1ccc(C(F)(F)F)cc1)c1nc2ccccc2[nH]1)c1ccccc1", "values": [{"measurement": "IC50", "result": 3.93, "unit": "µM"}]}
{"smiles": "COc1cccc(/C=N/Nc2cc(-n3nc(C)cc3-c3ccccc3)ncn2)c1O", "values": [{"measurement": "IC50", "result": 6.45, "unit": "µM"}]}
{"smiles": "COc1ccc(Nc2ccncc2[N+](=O)[O-])cc1", "values": [{"measurement": "IC50", "result": 6.45, "unit": "µM"}]}
{"smiles": "COc1ccc(C(C(=O)NC2CCCCC2)N(C(=O)CCl)c2ccc(Cl)cc2)cc1", "note": "(stereo not drawn)", "values": [{"measurement": "IC50", "result": 5.27, "unit": "µM"}]}
{"smiles": "NC(=S)N/N=C1\\CCSc2ccc(Cl)cc21", "values": [{"measurement": "IC50", "result": "inactive"}]}
{"smiles": "O=C(Nc1nc2ccccc2s1)C1c2ccccc2Oc2ccccc21", "values": [{"measurement": "IC50", "result": "inactive"}]}
{"smiles": "Cc1nc2c(-c3ccc(Cl)cc3)cnn2c(N)c1-c1ccc(F)cc1", "values": [{"measurement": "IC50", "result": 1.2, "unit": "µM"}]}
{"smiles": "C[C@@H](C(=O)Nc1ccc2c(c1)OCCO2)n1c(=O)[nH]c2ccccc2c1=O", "values": [{"measurement": "IC50", "result": "inactive"}]}
{"smiles": "COc1ccccc1N(C(=O)CCl)c1cn(C(C)=O)c2ccccc12", "values": [{"measurement": "IC50", "result": 8.58, "unit": "µM"}]}
{"smiles": "COc1ccc(CCNC(=O)c2nnn(-c3ccc4c(c3)OCCO4)c2N)cc1OC", "values": [{"measurement": "IC50", "result": "inactive"}]}
{"smiles": "Cc1sc2ncnc(N3CCC(C(=O)Nc4ccccc4C(C)(C)C)CC3)c2c1C", "values": [{"measurement": "IC50", "result": 8.88, "unit": "µM"}]}
{"smiles": "Cc1ccc(NC(=O)c2cc(C)n(-c3ccccc3)c2C)cc1", "values": [{"measurement": "IC50", "result": 0.223, "unit": "µM"}]}
{"smiles": "COC(CN(C(=O)CCl)C(C(=O)NC1CCCCC1)c1ccccc1C)OC", "note": "(stereo not drawn)", "values": [{"measurement": "IC50", "result": 7.26, "unit": "µM"}]}
{"smiles": "Cc1cc(C(=O)COC(=O)C2=COCCO2)c(C)n1-c1ccccc1", "values": [{"measurement": "IC50", "result": "> 12 µM (inactive)"}]}
{"smiles": "Cc1c(CC(=O)NCCCC(=O)O)c(=O)oc2cc3c(cc12)CCC(C)(C)O3", "values": [{"measurement": "IC50", "result": "inactive"}]}
{"smiles": "CC1CCN(C2=NC(=O)/C(=C/c3ccccc3F)S2)CC1", "values": [{"measurement": "IC50", "result": "inactive"}]}
{"smiles": "CCOC(=O)CC(=O)CSc1nccc(-c2cccnc2)n1", "values": [{"measurement": "IC50", "result": "inactive"}]}
{"smiles": "O=C(N/N=C(\\c1ccccc1)c1ccccn1)c1ccccc1Cl", "values": [{"measurement": "IC50", "result": 8.52, "unit": "µM"}]}
{"smiles": "COc1cc(C(=O)OCC(=O)Nc2sccc2C(N)=O)cc(OC)c1OC", "values": [{"measurement": "IC50", "result": "> 35.9 µM (inactive)"}]}
{"smiles": "Nc1ccc(Oc2ccccc2-c2ccccc2)cc1", "values": [{"measurement": "IC50", "result": "inactive"}]}
{"smiles": "O=C(Nc1cccc(C(F)(F)F)c1)Nc1nnc([C@@H]2C[C@H](O)[C@@H](CO)O2)s1", "values": [{"measurement": "IC50", "result": 6.98, "unit": "µM"}]}
{"smiles": "C(=Cc1cnc2ccccc2n1)c1ccc2c(c1)OCO2", "values": [{"measurement": "IC50", "result": "inactive"}]}
